Assay [1] has as its system primary cultures (neurons) from cerebral cortices of fetal Wistar rats. Put plainly: Biological Test 1: neuroprotective effect against glutamate induced neuronal cell death (MTT). It is filed as cell-based, rat. The following applies: Compound: 1 μM; glutamate 1 mM; control group = 100%. As for the experimental part:
Cultures were maintained at 37 C. in a 90% air/10% CO2 humidified incubator. Glutamate was added to the culture at day 4 to the final concentration of 1 mM. […] MTT was dissolved in phosphate buffered saline (PBS, pH 7.4) at 5 mg/ml and filtered to sterilize and remove a small amount of insoluble residue present in some batches of MTT, and added to the cultures at a final concentration of 0.5 mg/ml.
The test compounds (1 μM) was added 24 hrs prior to glutamate treatment and simultaneously with glutamate.
Survival rate of living cells (%) =[(test compound group—glutamic acid treated group)÷(control group—glutamic acid treated group)]×100

Assay [2] shares this test system. Kind of assay: Biological Test 2: antagonism of the neuroprotective effect by MTA treatment (MTT). The following applies: 0.75 mM MTA added 30 minutes before test compound, glutamate. Format: cell-based, rat. As to the method: This biological test is performed to determine whether the neuroprotective effect of the test compounds is due to the activation of receptors of physiological active substances or not, by using antagonistic test for neutralizing antibody and Inhibitor for FGF, NT-3, NT-4/5, BDNF, IGF-I/II, NGF, PDGF and estrogen, respectively.
Chem., 268, 4244 (1993)]. Therefore, the neuroprotective effect of the test compounds is inhibited by treatment of MTA, this effect is depended by the signal transfer effect through the phosphorylation of FGF receptor.
The inhibitors of the various kinds of receptor were dissolved in the optimum concentration, and MTA was dissolved in the concentration of 7.5 mM, just before the using. 30 minutes before the treatment of the test compounds, the optimum concentration of each inhibitors or 0.75 mM of MTA was added, and the neuroprotective effect of the test compounds was determined by mean of MTT method.

For assay [3], the system named is cerebral edema (water content of cerebral hemisphere), Wistar rats. Kind of assay: Biological Test 5: cerebral edema suppressing effect. It is filed as in vivo. Conditions: iv, 144 h, rat, post-TBI day 6, read-out: Cerebral edema suppressing rate (%); for inhibition in vivo at 1 mg/kg: 1 mg/kg intravenously just after the operation; for inhibition in vivo at 3 mg/kg: 3 mg/kg intravenously just after the operation. As to the method:
Adult male Wistar rats weighing 210–230 g were used in the present study and housed in an artificially controlled environment with 12-hour light/dark cycle. Animals were anesthetized with pentobarbital sodium (50 mg/kg of body weight, i.p., Nembutal, Dinabbott, Japan) and placed in a stereotaxic apparatus. The skull was exposed and a hole was made on the parietal bone; 1.5 mm posterior and 0.8 mm lateral to the bregma. All procedures were performed under a surgery microscope to avoid excess irritation to the meninges and the underlying brain. A brass screw with a blunt tip (1.0 mm in diameter and 3.0 mm in length, Biomedica, Japan) was inset in the hole. The screw tip protruding intracranially was approximately 2.5 mm, which stuck into the parietal part of the right cerebrum through the meninges. In sham-operated rats, scalp was closed without attaching a screw to the hole. After surgery, all rats were kept in their original dens until sacrifice. Rats were allowed to feed chow and water ad libitum.
Under anesthesia the rat cerebral hemispheres of the target were processed for water content on post-TBI day 6 (n=6). The cerebral hemispheres dissected out were weighed, dried for 24 hours at 110 degree (Celsius) and then weighed again. The subtracted amount of the wet and dry weights was regarded as tissue water of the target, and utilized for the analysis of the cerebral edema.
The water content was calculated by using the following formula:
Water content (%) =[(wet weight of hemisphere—dry weight of hemisphere)/wet weight of hemisphere]×100
The test compounds were intravenously administered just after the operation via tail vein of the rats.

In assay [4] the test system is primary cultures (neurons) from cerebral cortices of fetal Wistar rats. Put plainly: Biological Test 4: neuroprotective inhibiting effect by calbindin antisense oligonucleotide (MTT). Format: cell-based, rat. Conditions: 300 μM glutamic acid.

On to `Cc1c(C)c(OCC(=O)N(C)C2CCN(CC(=O)Nc3ccccc3)CC2)c(C)c(C)c1N` [Compound 7, 2-(4-Amino-2,3,5,6-tetramethylphenoxy)-N-[1-(2-anilino-2-oxoethyl)-4-piperidinyl]-N-methylacetamide], for which the “Survival Rate (%) (Compound: 1 μl)” value in assay [1] was determined as 76%. For the same compound, the “Survival Rate (%) (Compound: 1 μl & MTA treatment)” value in assay [2] came to 32%.

Regarding `CCCCN1CCC(N(C)C(=O)COc2c(C)c(C)c(N)c(C)c2C)CC1` [Compound 9, 2-(4-Amino-2,3,5,6-tetramethylphenoxy)-N-(1-butyl-4-piperidinyl)-N-methylacetamide], in assay [1], the “Survival Rate (%) (Compound: 1 μl)” value is recorded as 104%. Besides, the “Survival Rate (%) (Compound: 1 μl & MTA treatment)” value in assay [2] is recorded as 5%.

Take `Cc1c(C)c(OCC(=O)N(C)C2CCN(CC(=O)c3ccccc3)CC2)c(C)c(C)c1N` [Compound 10, 2-(4-Amino-2,3,5,6-tetramethylphenoxy)-N-[1-(2-phenyl-2-oxoethyl)-4-piperidinyl]-N-methylacetamide]: the “Survival Rate (%) (Compound: 1 μl)” value in assay [1] is 86%. In assay [2], the “Survival Rate (%) (Compound: 1 μl & MTA treatment)” value is recorded as 31%.

For `Cc1c(C)c(OCC(=O)N(C)C2CCN(CC(O)c3ccccc3)CC2)c(C)c(C)c1N` (centres unmarked) [Compound 11, 2-(4-Amino-2,3,5,6-tetramethylphenoxy)-N-[1-(2-hydroxy-2-phenylethyl)-4-piperidinyl]-N-methylacetamide], the “Survival Rate (%) (Compound: 1 μl)” value in assay [1] turned out to be 74%. Besides, the “Survival Rate (%) (Compound: 1 μl & MTA treatment)” value in assay [2] worked out at 56%.

On to `Cc1c(C)c(OCC(=O)N(C)C2CCN(CCOc3ccccc3)CC2)c(C)c(C)c1N` [Compound 14, 2-(4-Amino-2,3,5,6-tetramethylphenoxy)-N-methyl-N-[1-(2-phenoxyethyl)-4-piperidinyl]acetamide], for which the inhibition in vivo at 1 mg/kg in assay [3] worked out at 18.7%.

Regarding `Cc1c(C)c(OCC(=O)N(C)C2CCN(CC(=O)N(C)c3ccccc3)CC2)c(C)c(C)c1N` [Compound 15, 2-(4-Amino-2,3,5,6-tetramethylphenoxy)-N-methyl-N-{1-[2-(N-methylanilino)-2-oxoethyl]-4-piperidinyl}acetamide], in assay [3], the inhibition in vivo at 1 mg/kg amounted to 14.7%.

Regarding `Cc1c(C)c(OCC(=O)N(C)C2CCN(CCN3CCOCC3)CC2)c(C)c(C)c1N` [Compound 16, 2-(4-Amino-2,3,5,6-tetramethylphenoxy)-N-methyl-N-{1-[2-(4-morpholinyl)ethyl]-4-piperidinyl}acetamide], in assay [1], the “Survival Rate (%) (Compound: 1 μl)” value turned out to be 101%. The “Survival Rate (%) (Compound: 1 μl & MTA treatment)” value in assay [2] was found to be 33%.

`Cc1c(C)c(OCC(=O)N(C)C2CCN(CCOCC(O)c3ccccc3)CC2)c(C)c(C)c1N` (centres unmarked) [Compound 17, 2-(4-Amino-2,3,5,6-tetramethylphenoxy)-N-{1-[2-(2-hydroxy-2-phenylethoxy)ethyl]-4-piperidinyl}-N-methylacetamide]: in assay [1], the “Survival Rate (%) (Compound: 1 μl)” value was determined as 85%. The “Survival Rate (%) (Compound: 1 μl & MTA treatment)” value in assay [2] worked out at 55%.

Consider `Cc1c(C)c(OCC(=O)N(C)C2CCN(Cc3ccc(C(N)=O)cc3)CC2)c(C)c(C)c1N` [Compound 19, 4-({4-[[(4-Amino-2,3,5,6-tetramethylphenoxy)acetyl]-(methyl)amino]-1-piperidinyl}methyl)bezamide], for which the “Survival Rate (%) (Compound: 1 μl)” value in assay [1] is listed as 96%. For the same compound, in assay [2], the “Survival Rate (%) (Compound: 1 μl & MTA treatment)” value is on record as 28%.

On to `Cc1c(C)c(OCC(=O)N(C)C2CCN(C(C)Cc3ccccc3)CC2)c(C)c(C)c1N` (centres unmarked) [Compound 22, 2-(4-Amino-2,3,5,6-tetramethylphenoxy)-N-methyl-N-[1-(1-methyl-2-phenylethyl)-4-piperidinyl]acetamide], for which the “Survival Rate (%) (Compound: 1 μl)” value in assay [1] is recorded as 79%. Also, the “Survival Rate (%) (Compound: 1 μl & MTA treatment)” value in assay [2] came out at 32%.

Turning to `Cc1c(C)c(OC(C)C(=O)N(C)C2CCN(CC3CC3c3ccccc3)CC2)c(C)c(C)c1N` (stereo not drawn) [Compound 26, 2-(4-Amino-2,3,5,6-tetramethylphenoxy)-N-methyl-N-[1-(trans-2-phenyl-1-cyclopropylmethyl)-4-piperidniyl]propanamide], in assay [3], the inhibition in vivo at 3 mg/kg was found to be 11.9%.

`Cc1c(C)c(OC(C)C(=O)N(C)C2CCN(CC(=O)N(C)c3ccccc3)CC2)c(C)c(C)c1N` (centres unmarked) [Compound 27, 2-(4-Amino-2,3,5,6-tetramethylphenoxy)-N-methyl-N-{1-[2-(N-methylanilino)-2-oxoethyl]-4-piperidinyl}propanamide]: the inhibition in vivo at 3 mg/kg in assay [3] worked out at 11.8%.

Regarding `Cc1c(C)c(OC(C)(C)C(=O)N(C)C2CCN(CCc3ccccc3)CC2)c(C)c(C)c1N` [Compound 28, 2-(4-Amino-2,3,5,6-tetramethylphenoxy)-N,2-dimethyl-N-[1-(2-phenylethyl)-4-piperidinyl]propanamide], the “Survival Rate (%) (Compound: 1 μl)” value in assay [1] turned out to be 103%. In addition, in assay [2], the “Survival Rate (%) (Compound: 1 μl & MTA treatment)” value was 46%.

Take `Cc1c(C)c(C)c(OCC(=O)N(C)C2CCN(CCc3ccccc3)CC2)c(N)c1C` [Compound 29, 2-(2-Amino-3,4,5,6-tetramethylphenoxy)-N-methyl-N-[1-(2-phenylethyl)-4-piperidinyl]acetamide]: in assay [3], the inhibition in vivo at 1 mg/kg stood at 13.8%.

Consider `Cc1c(C)c(N)c(C)c(OCC(=O)N(C)C2CCN(C(=O)c3ccccc3)CC2)c1C` [Compound 33, 2-(3-Amino-2,4,5,6-tetramethylphenoxy)N-(1-benzoyl-4-piperidinyl)-N-methylacetamide], for which the “Survival Rate (%) (Compound: 1 μl)” value in assay [1] is on record as 120%. Also, the “Survival Rate (%) (Compound: 1 μl & MTA treatment)” value in assay [2] is reported as 46%.

Take `Cc1c(C)c(N)c(C)c(OCC(=O)N(C)C2CCN(Cc3ccc(C#N)cc3)CC2)c1C` [Compound 34, 2-(3-Amino-2,4,5,6-tetramethylphenoxy)-N-[1-(4-cyano-benzyl)-4-piperidinyl]-N-methylacetamide]: the “Survival Rate (%) (Compound: 1 μl)” value in assay [1] is on record as 74%. For the same compound, in assay [2], the “Survival Rate (%) (Compound: 1 μl & MTA treatment)” value stood at 21%.

For `Cc1c(C)c(NCC(=O)N(C)C2CCN(c3nc4ccccc4s3)CC2)c(C)c(C)c1N` [Compound 37, 2-(4-Amino-2,3,5,6-tetramethylanilino)-N-[1-(1,3-benzothiazol-2-yl)-4-piperidinyl]-N-methylacetamide], in assay [1], the “Survival Rate (%) (Compound: 1 μl)” value amounted to 95%. Also, the “Survival Rate (%) (Compound: 1 μl & MTA treatment)” value in assay [2] was 20%.

Turning to `Cc1c(C)c(NCC(=O)N(C)C2CCN(c3ccc(F)cc3)CC2)c(C)c(C)c1N` [Compound 38, 2-(4-Amino-2,3,5,6-tetramethylanilino)-N-[1-(4-fluorophenyl)-4-piperidinyl]-N-methylacetamide], the “Survival Rate (%) (Compound: 1 μl)” value in assay [1] is 124%. Further, in assay [2], the “Survival Rate (%) (Compound: 1 μl & MTA treatment)” value amounted to 19%. Further, in assay [4] (0.1 μM), the “Survival Rate (%) [antisense (+): 5 μM]” value was 28% and the “Survival Rate (%) [antisense (−)]” value was found to be 100%. For the same compound, in assay [4] (1 μM), the “Survival Rate (%) [antisense (+): 5 μM]” value amounted to 33% and the “Survival Rate (%) [antisense (−)]” value is reported as 106%.

In the case of `Cc1cc(C)c(NCC(=O)N(C)C2CCN(c3ccc(F)cc3)CC2)c(C)c1N` [Compound 39, 2-(3-Amino-2,4,6-trimethylanilino)-N-[1-(4-fluoro-phenyl)-4-piperidinyl]-N-methylacetamide], the “Survival Rate (%) (Compound: 1 μl)” value in assay [1] came out at 94%. For the same compound, in assay [2], the “Survival Rate (%) (Compound: 1 μl & MTA treatment)” value turned out to be 28%.

With “BFGF: Reference test substance in Table 10 (1 ng, 10 ng); not defined further; FGF is a physiologically active substance inducing CalbindinD-28k”, the “Survival Rate (%) [antisense (+): 5 μM]” value in assay [4] (1 ng) was determined as 8%; in assay [4] (10 ng), 35%. In addition, the “Survival Rate (%) [antisense (−)]” value is reported as 71% in assay [4] (1 ng) and 101% in assay [4] (10 ng).

The values above are taken from US7067533B2, “Aminophenoxyacetamide derivatives and pharmaceutical composition containing thereof” (Daiichi Asubio Pharma Co., Ltd., priority 2000, dated 2006).
